Experimental data published in patent US10028933B2, “Compositions and methods for inhibiting the growth of multi-drug resistant microbes” (priority 2015, dated 2018).
“Also recorded” adds a separate entry of the source.

What was measured:
Salmonella Typhimurium = conditions: cited from earlier work
[1] = preclinical studies; cited from earlier work
Francisella tularensis = conditions: cited from earlier work
[2] = long term oral exposures up to 33 weeks; cited from earlier work
B. cenocepacia = test: direct bacterial killing assay in media alone (optical absorbance density over 24 hours)
human CF and non-CF MDMs = test: macrophage viability assay at 24 h
P. aeruginosa [3] = test: direct bacterial killing assay in media alone of CF clinical P. aeruginosa isolate (24 hours); conditions: media devoid of human macrophages or neutrophils, n=3
P. aeruginosa [4] = conditions: AR-13 alone
[5] = tested on: B. cenocepacia strain k56-2; conditions: 5 μM AR-13 alone
MRSA = test: bacterial killing assay of CF clinical MRSA isolate in media (optical absorbance density, 24 hours); assay type: cell-based

Compound	antibacterial activity against intracellular Salmonella Typhimurium in macrophages (Salmonella Typhimurium)	accumulation in tissues relative to blood level concentrations [1]	blood brain barrier penetration [1]	antibacterial activity against intracellular Francisella tularensis in macrophages (Francisella tularensis)	safety profile in phase I study [2]	reduction of optical absorbance density of B. cenocepacia compared to no treatment (B. cenocepacia; AR-13 alone vs B. cenocepacia alone, media, 24 hour period, n=3)	direct killing / bacterial growth of B. cenocepacia in media alone (B. cenocepacia; media alone, 24 hours, AR-13 5 μM)	AR-13 concentrations tolerated by CF and non-CF macrophages and neutrophils (human CF and non-CF MDMs; CF and non-CF macrophages and neutrophils)	macrophage viability (human CF and non-CF MDMs; human CF and non-CF MDMs, uninfected or infected with B. cenocepacia, 24 h)	AR-13 concentrations resulting in increased toxicity (human CF and non-CF MDMs; uninfected MDMs)	direct killing of P. aeruginosa in media (P. aeruginosa [3])	reduction in P. aeruginosa burden in CF neutrophils (P. aeruginosa [4]; CF neutrophils)	reduction in P. aeruginosa burden in non-CF neutrophils (P. aeruginosa [4]; non-CF neutrophils)	reduction in B. cenocepacia burden in infected CF and non-CF macrophages [5]	killing of MRSA in media (MRSA; 24 hours, media)	reduction of optical absorbance density of MRSA compared to no treatment (MRSA; CF clinical MRSA isolate, 24 hour period, n=3)	AR-13 concentration of greatest efficacy against MRSA (dose titration) (MRSA; dose titration 5, 2.5, 1.25 μM, 24 hours, n=3)
NCC(=O)Nc1ccc(-n2nc(C(F)(F)F)cc2-c2ccc3c(ccc4ccccc43)c2)cc1 [AR-12]	antibacterial activity	exceeding the blood level concentrations by several fold	rapid blood brain barrier penetration	antibacterial activity	acceptable safety profile												
NS(=O)(=O)Nc1ccc(-n2nc(C(F)(F)F)cc2-c2ccc3c(ccc4ccccc43)c2)cc1 [AR-13, N-{4-[5-(Phenanthren-2-yl)-3-(trifluoromethyl)-1H-pyrazol-1-yl]phenyl}sulfuric diamide]						about 1.3 fold	significant reduction in bacterial growth; also recorded: direct killing effect	up to 10 μM	no significant differences in cell viability; also recorded: does not impact macrophage viability	above 10 μM	did not demonstrate direct killing; also recorded: did not enhance bacterial killing in media; also recorded: no direct effect	70%	66%	23%	bacterial optical density increases as the dose of AR-13 decreases	about 1.3 fold	5 µM
